PMC6435334 (Nature chemical biology, 2018)

Key:
[1] = target: D-apiose dehydrogenase (B9JK80) (Martinezella rhizogenes, UniProt B9JK80); assay: NADH formation, […] nm; assay type: biochemical; conditions: 1.5 mM NAD+; 50 mM Tris-HCl pH 8.5; 25 °C; furanose D-apiose
[2] = target: D-apionate lactonase / D-apionolactonase (A6X3G3, "hypothetical" protein) (Brucella anthropi, UniProt A6X3G3)
Sequence of D-apionate lactonase / D-apionolactonase (A6X3G3, "hypothetical" protein) (A6X3G3 whole entry, looked up, one chain of several): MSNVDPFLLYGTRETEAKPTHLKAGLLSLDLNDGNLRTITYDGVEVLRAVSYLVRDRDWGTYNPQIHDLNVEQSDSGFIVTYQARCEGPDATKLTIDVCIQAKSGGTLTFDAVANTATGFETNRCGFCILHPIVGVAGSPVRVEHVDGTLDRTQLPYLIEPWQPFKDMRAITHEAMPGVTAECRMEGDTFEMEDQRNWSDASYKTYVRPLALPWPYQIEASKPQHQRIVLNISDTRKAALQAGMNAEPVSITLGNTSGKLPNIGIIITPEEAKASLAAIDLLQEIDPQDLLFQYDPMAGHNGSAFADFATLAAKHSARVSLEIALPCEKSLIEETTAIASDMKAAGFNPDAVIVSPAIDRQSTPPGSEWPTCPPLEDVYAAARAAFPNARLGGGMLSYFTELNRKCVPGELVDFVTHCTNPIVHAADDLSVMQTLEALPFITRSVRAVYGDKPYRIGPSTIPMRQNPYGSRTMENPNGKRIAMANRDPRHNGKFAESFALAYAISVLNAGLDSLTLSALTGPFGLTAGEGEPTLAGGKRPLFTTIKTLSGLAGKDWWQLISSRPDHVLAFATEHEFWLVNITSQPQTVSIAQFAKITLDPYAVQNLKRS

Sequence of D-apiose dehydrogenase (B9JK80) (B9JK80 whole entry): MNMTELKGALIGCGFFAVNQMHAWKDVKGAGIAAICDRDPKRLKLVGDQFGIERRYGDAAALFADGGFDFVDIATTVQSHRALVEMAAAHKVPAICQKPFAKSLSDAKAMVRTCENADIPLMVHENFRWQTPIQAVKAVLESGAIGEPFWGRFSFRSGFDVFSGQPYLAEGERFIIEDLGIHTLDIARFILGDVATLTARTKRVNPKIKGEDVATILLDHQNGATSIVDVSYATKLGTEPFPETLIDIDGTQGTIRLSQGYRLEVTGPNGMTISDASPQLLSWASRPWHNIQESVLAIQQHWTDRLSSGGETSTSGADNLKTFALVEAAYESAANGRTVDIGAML

Question: With `O=C[C@H](O)C(O)(CO)CO` [D-apiose] as the compound, how does the KM [1] read?
Answer: (B9JK80) catalyzed oxidation of D-apiose to D-apionolactone using NAD^+

Question: For `O=C1OCC(O)(CO)[C@H]1O` (stereo partly drawn) [D-apionolactone], which “1H NMR, D-apionolactone generated in situ by B9JK80” value [2] is on record?
Answer: it hydrolyzed D-apionolactone to D-apionate
